Experimental data published in patent US20240158370A1, “CK1 alpha AND DUAL CK1 alpha / GSPT1 DEGRADING COMPOUNDS” (Innovo Therapeutics, Inc., priority 2022, published 2024).

Assays:
CK1α = target: T1, CK1α (Homo sapiens, UniProt P48729+Q96SW2); assay: HiBiT degradation assay, CK1α, Procedure A; format: cell-based
T1 construct: CSNK1A1-HiBit KI HEK293(LgBit) Cells; host or cells: HEK293(LgBit) knock-in cells
In short: (§1)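 Luminescence from HiBiT lytic detection reports remaining tagged protein after cells sit six hours at 37° C with compound across ten concentrations (10 μM down to 0.005 μM, 0.1% DMSO). A 4-parameter curve fit gives DC50 and Ymin.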

GSPT1 = GSPT1 (Homo sapiens, UniProt P15170+Q96SW2); assay: HiBiT degradation assay, GSPT1, Procedure A; format: cell-based; parameters: HiBit-GSPT1 KI HEK293(LgBit) Cells; host or cells: HEK293(LgBit) knock-in cells
In short: as §1

T1 sequence (P48729 whole entry): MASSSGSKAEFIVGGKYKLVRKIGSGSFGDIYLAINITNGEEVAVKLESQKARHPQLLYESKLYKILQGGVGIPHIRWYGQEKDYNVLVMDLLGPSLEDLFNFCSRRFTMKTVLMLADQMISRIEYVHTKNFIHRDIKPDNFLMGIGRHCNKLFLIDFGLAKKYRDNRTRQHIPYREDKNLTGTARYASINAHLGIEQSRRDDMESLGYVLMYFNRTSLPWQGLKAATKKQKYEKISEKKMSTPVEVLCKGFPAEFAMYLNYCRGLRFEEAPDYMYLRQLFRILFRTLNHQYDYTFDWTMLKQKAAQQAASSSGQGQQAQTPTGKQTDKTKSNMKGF
T1 sequence (Q96SW2 whole entry): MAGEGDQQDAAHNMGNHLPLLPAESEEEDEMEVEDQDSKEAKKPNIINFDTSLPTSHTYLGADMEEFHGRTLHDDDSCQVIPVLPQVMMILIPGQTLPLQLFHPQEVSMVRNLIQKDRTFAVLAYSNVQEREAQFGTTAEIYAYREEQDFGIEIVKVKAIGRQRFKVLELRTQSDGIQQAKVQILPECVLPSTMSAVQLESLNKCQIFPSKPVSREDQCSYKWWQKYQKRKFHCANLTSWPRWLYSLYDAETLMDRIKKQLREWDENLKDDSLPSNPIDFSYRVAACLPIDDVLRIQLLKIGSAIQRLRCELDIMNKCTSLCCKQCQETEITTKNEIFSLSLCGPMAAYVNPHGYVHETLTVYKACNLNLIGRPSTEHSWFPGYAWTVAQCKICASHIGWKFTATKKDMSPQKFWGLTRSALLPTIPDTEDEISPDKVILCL
T1 sequence (Q16531 whole entry partner): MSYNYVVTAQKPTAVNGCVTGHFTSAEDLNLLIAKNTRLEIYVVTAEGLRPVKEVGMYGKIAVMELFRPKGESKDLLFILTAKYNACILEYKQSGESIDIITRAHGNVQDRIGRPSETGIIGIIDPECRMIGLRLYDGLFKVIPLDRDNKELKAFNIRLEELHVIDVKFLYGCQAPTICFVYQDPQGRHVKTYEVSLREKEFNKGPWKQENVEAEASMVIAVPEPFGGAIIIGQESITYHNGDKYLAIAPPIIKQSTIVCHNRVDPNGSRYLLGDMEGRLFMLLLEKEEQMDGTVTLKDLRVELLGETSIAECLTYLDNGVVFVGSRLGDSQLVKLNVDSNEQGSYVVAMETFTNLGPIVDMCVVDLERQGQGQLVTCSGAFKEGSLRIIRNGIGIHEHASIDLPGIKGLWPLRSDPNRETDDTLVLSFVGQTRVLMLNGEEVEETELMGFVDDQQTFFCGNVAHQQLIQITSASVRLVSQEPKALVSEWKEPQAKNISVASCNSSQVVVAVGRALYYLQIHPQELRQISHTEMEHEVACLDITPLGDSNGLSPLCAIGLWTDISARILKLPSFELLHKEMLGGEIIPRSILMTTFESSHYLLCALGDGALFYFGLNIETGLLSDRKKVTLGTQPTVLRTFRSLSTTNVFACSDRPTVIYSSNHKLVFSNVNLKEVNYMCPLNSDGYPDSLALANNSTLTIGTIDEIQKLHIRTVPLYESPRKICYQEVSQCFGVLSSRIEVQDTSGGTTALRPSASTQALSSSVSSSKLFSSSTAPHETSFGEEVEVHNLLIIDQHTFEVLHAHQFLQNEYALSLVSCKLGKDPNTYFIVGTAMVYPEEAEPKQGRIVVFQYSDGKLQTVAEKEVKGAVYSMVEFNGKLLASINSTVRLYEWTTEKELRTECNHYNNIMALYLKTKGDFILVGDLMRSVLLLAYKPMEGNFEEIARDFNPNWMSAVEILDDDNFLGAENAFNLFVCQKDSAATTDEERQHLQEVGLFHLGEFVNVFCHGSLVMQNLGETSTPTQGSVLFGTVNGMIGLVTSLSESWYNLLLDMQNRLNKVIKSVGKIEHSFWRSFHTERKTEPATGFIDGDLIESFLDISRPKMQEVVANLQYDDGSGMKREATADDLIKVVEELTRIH
Chain of GSPT1 (P15170 whole entry): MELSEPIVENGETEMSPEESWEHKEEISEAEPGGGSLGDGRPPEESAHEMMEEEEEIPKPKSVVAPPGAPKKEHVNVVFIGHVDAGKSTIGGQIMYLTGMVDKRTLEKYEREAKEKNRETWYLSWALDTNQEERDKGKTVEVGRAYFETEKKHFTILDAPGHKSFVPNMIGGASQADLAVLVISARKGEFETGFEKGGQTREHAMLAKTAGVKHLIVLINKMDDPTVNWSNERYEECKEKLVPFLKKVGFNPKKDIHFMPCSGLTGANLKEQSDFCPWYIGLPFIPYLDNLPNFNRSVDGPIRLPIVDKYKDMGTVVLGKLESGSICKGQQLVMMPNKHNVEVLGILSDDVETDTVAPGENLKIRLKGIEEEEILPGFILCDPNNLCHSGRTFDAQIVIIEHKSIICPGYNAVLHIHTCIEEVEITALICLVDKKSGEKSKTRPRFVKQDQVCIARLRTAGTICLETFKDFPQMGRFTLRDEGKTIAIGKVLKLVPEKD
Chain of GSPT1 (Q96SW2 whole entry): as the sequence (Q96SW2 whole entry) above
Chain of GSPT1 (Q16531 whole entry partner): as the sequence (Q16531 whole entry partner) above

SMILES | CK1α Ymin (CK1α; six hours incubation) | DC50 (CK1α; six hours incubation) [nM] | DC50 (GSPT1; six hours incubation) [nM] | GSPT1 Ymin (GSPT1; six hours incubation) | CK1α Ymin (CK1α; six hours) | DC50 (CK1α; six hours) [nM] | DC50 (GSPT1; six hours) [nM] | GSPT1 Ymin (GSPT1; six hours)
Cn1ncc(-c2ccc3c(c2)CN(C2CCC(=O)NC2=O)C3=O)c1-c1cncnc1 (centres unmarked) [Example 362] | E (E = >25-75% remaining) | < 25 | ≥ 25 | F (F = >75-100% remaining) |  |  |  | 
Cn1ncc(-c2ccc3c(c2)CN(C2CCC(=O)NC2=O)C3=O)c1-c1ccccc1C#N (centres unmarked) [Example 152] | E (E = >25-75% remaining) | ≥ 25 | ≥ 25 | F (F = >75-100% remaining) |  |  |  | 
Cn1ncc(-c2ccc3c(c2)CN(C2CCC(=O)NC2=O)C3=O)c1-c1cccc(Cl)c1 (centres unmarked) [Example 173] | E (E = >25-75% remaining) | < 25 | ≥ 25 | F (F = >75-100% remaining) |  |  |  | 
Cc1ccc(F)c(-c2nc(-c3ccc4c(c3)CN(C3CCC(=O)NC3=O)C4=O)cn2C)c1 (centres unmarked) [Example 561] |  |  |  |  | C (C = 0-10% remaining) | < 25 | < 25 | F (F = >75-100% remaining)
Cn1ncc(-c2ccc3c(c2)CN(C2CCC(=O)NC2=O)C3=O)c1-c1ccc2cncn2c1 (centres unmarked) [Example 461] |  |  |  |  | C (C = 0-10% remaining) | ≥ 25 | ≥ 25 | F (F = >75-100% remaining)
Cn1cnc(-c2ccc3c(c2)CN(C2CCC(=O)NC2=O)C3=O)c1-c1cnn(C2CCCCC2)c1 (centres unmarked) [Example 517] |  |  |  |  | E (E = >25-75% remaining) | ≥ 25 | < 25 | F (F = >75-100% remaining)
CC(C)c1ccccc1-c1c(-c2ccc3c(c2)CN(C2CCC(=O)NC2=O)C3=O)cnn1C (centres unmarked) [Example 60] | E (E = >25-75% remaining) | < 25 | ≥ 25 | F (F = >75-100% remaining) |  |  |  | 
O=C1CCC(N2Cc3cc(-c4cnn(CC(F)F)c4-c4ccccc4)ccc3C2=O)C(=O)N1 (centres unmarked) [Example 430, 3-(5-(1-(2,2-difluoroethyl)-5-phenyl-1H-pyrazol-4-yl)-1-oxoisoindolin-2-yl)piperidine-2,6-dione] |  |  |  |  | D (D = >10- 25% remaining) | < 25 | ≥ 25 | F (F = >75-100% remaining)
Cn1ncc(-c2ccc3c(c2)CN(C2CCC(=O)NC2=O)C3=O)c1-c1cc(Cl)ccc1F (centres unmarked) [Example 93] | E (E = >25-75% remaining) | ≥ 25 | ≥ 25 | F (F = >75-100% remaining) |  |  |  | 
Cc1ccccc1-c1c(-c2ccc3c(c2)CN(C2CCC(=O)NC2=O)C3=O)cnn1C (centres unmarked) [Example 74] | E (E = >25-75% remaining) | < 25 | ≥ 25 | F (F = >75-100% remaining) |  |  |  | 
Cn1nc(-c2ccc3c(c2)CN(C2CCC(=O)NC2=O)C3=O)nc1N1CCC(F)(F)CC1 (centres unmarked) [Example 613, 3-(5-(5-(4,4-difluoropiperidin-1-yl)-1-methyl-1H-1,2,4-triazol-3-yl)-1-oxoisoindolin-2-yl)piperidine-2,6-dione] |  |  |  |  | E (E = >25-75% remaining) | < 25 | ≥ 25 | F (F = >75-100% remaining)
CN1N=CC(c2ccc3c(c2)CN(C2CCC(=O)NC2=O)C3=O)C1c1cnc(C#N)nc1 (centres unmarked) [Example 374] | F (F = >75-100% remaining) | ≥ 25 | ≥ 25 | F (F = >75-100% remaining) |  |  |  | 
Cc1ccc(C)c(-c2c(-c3ccc4c(c3)CN(C3CCC(=O)NC3=O)C4=O)cnn2C)c1 (centres unmarked) [Example 87] | E (E = >25-75% remaining) | < 25 | ≥ 25 | F (F = >75-100% remaining) |  |  |  | 
COc1ncccc1-c1c(-c2ccc3c(c2)CN(C2CCC(=O)NC2=O)C3=O)cnn1C (centres unmarked) [Example 377] | E (E = >25-75% remaining) | < 25 | ≥ 25 | F (F = >75-100% remaining) |  |  |  | 
Cn1cnc(-c2ccc3c(c2)CN(C2CCC(=O)NC2=O)C3=O)c1-c1ccc(C(=O)NC2CCCC2)cc1 (centres unmarked) [Example 300] | D (D = >10- 25% remaining) | ≥ 25 | ≥ 25 | F (F = >75-100% remaining) |  |  |  | 
Cn1ncc(-c2ccc3c(c2)CN(C2CCC(=O)NC2=O)C3=O)c1-c1cccc(N2CCNCC2)c1 (centres unmarked) [Example 412] |  |  |  |  | E (E = >25-75% remaining) | ≥ 25 | ≥ 25 | F (F = >75-100% remaining)
Cc1ccc(-c2c(-c3ccc4c(c3)CN(C3CCC(=O)NC3=O)C4=O)cnn2C)cn1 (centres unmarked) [Example 367] | C (C = 0-10% remaining) | < 25 | < 25 | F (F = >75-100% remaining) |  |  |  | 
Cn1ncc(-c2ccc3c(c2)CN(C2CCC(=O)NC2=O)C3=O)c1-c1cccc(N)c1 (centres unmarked) [Example 147] | C (C = 0-10% remaining) | < 25 | ≥ 25 | F (F = >75-100% remaining) |  |  |  | 
Cn1nc(-c2ccc3c(c2)CN(C2CCC(=O)NC2=O)C3=O)nc1N1CCCCCC1 (centres unmarked) [Example 611, 3-(5-(5-(azepan-1-yl)-1-methyl-1H-1,2,4-triazol-3-yl)-1-oxoisoindolin-2-yl)piperidine-2,6-dione] |  |  |  |  | C (C = 0-10% remaining) | < 25 | ≥ 25 | F (F = >75-100% remaining)
Cn1nc(-c2ccc3c(c2)CN(C2CCC(=O)NC2=O)C3=O)nc1C1CCC(C)(C)CC1 (centres unmarked) [Example 605, 3-(5-(5-(4,4-dimethylcyclohexyl)-1-methyl-1H-1,2,4-triazol-3-yl)-1-oxoisoindolin-2-yl)piperidine-2,6-dione] |  |  |  |  | E (E = >25-75% remaining) | < 25 | ≥ 25 | F (F = >75-100% remaining)
Cc1ccsc1-c1c(-c2ccc3c(c2)CN(C2CCC(=O)NC2=O)C3=O)cnn1C (centres unmarked) [Example 126] | D (D = >10- 25% remaining) | < 25 | ≥ 25 | F (F = >75-100% remaining) |  |  |  | 

The remaining lines, values ahead:

CK1α Ymin (CK1α; six hours incubation) | DC50 (CK1α; six hours incubation) [nM] | DC50 (GSPT1; six hours incubation) [nM] | GSPT1 Ymin (GSPT1; six hours incubation) | CK1α Ymin (CK1α; six hours) | DC50 (CK1α; six hours) [nM] | DC50 (GSPT1; six hours) [nM] | GSPT1 Ymin (GSPT1; six hours) | SMILES
C (C = 0-10% remaining) | < 25 | < 25 | F (F = >75-100% remaining) |  |  |  |  | Cn1cnc(-c2ccc3c(c2)CN(C2CCC(=O)NC2=O)C3=O)c1-c1ccc(-c2ccncc2)cc1 (centres unmarked) [Example 305]
D (D = >10- 25% remaining) | < 25 | ≥ 25 | E (E = >25-75% remaining) |  |  |  |  | COc1ccc(-c2c(-c3ccc4c(c3)CN(C3CCC(=O)NC3=O)C4=O)cnn2C)cc1Cl (centres unmarked) [Example 146]
 |  |  |  | C (C = 0-10% remaining) | < 25 | ≥ 25 | F (F = >75-100% remaining) | Cn1cnc(-c2ccc3c(c2)CN(C2CCC(=O)NC2=O)C3=O)c1-c1ccc2ncn(C)c2c1 (centres unmarked) [Example 500]
E (E = >25-75% remaining) | ≥ 25 | ≥ 25 | F (F = >75-100% remaining) |  |  |  |  | Cn1ncc(-c2ccc3c(c2)CN(C2CCC(=O)NC2=O)C3=O)c1-c1ccc(Cl)c(C#N)c1 (centres unmarked) [Example 119]
 |  |  |  | D (D = >10- 25% remaining) | < 25 | < 25 | F (F = >75-100% remaining) | Cn1ccc(-c2c(-c3ccc4c(c3)CN(C3CCC(=O)NC3=O)C4=O)ncn2C)n1 (centres unmarked) [Example 505]
E (E = >25-75% remaining) | ≥ 25 | ≥ 25 | F (F = >75-100% remaining) |  |  |  |  | Cc1cc(C#N)ccc1-c1c(-c2ccc3c(c2)CN(C2CCC(=O)NC2=O)C3=O)ncn1C (centres unmarked) [Example 180]
C (C = 0-10% remaining) | < 25 | ≥ 25 | E (E = >25-75% remaining) |  |  |  |  | Cn1cnc(-c2ccc3c(c2)CN([C@@H]2CCC(=O)NC2=O)C3=O)c1-c1ccc(F)cc1 [Example 24, (R)-3-(5-(5-(4-fluorophenyl)-1-methyl-1H-imidazol-4-yl)-1-oxoisoindolin-2-yl) piperidine-2,6-dione]
C (C = 0-10% remaining) | < 25 | ≥ 25 | F (F = >75-100% remaining) |  |  |  |  | Cn1ncc(-c2ccc3c(c2)CN(C2CCC(=O)NC2=O)C3=O)c1-c1cccc(O)c1 (centres unmarked) [Example 219]
 |  |  |  | E (E = >25-75% remaining) | ≥ 25 | ≥ 25 | F (F = >75-100% remaining) | Cn1cnc(-c2ccc3c(c2)CN(C2CCC(=O)NC2=O)C3=O)c1-c1ccc2ncnn2c1 (centres unmarked) [Example 490]
E (E = >25-75% remaining) | < 25 | ≥ 25 | F (F = >75-100% remaining) |  |  |  |  | Cn1cnc(-c2ccc3c(c2)CN(C2CCC(=O)NC2=O)C3=O)c1-c1cccc(-c2ccccc2)c1 (centres unmarked) [Example 291]
E (E = >25-75% remaining) | < 25 | ≥ 25 | F (F = >75-100% remaining) |  |  |  |  | CC(C)c1ccc(-c2c(-c3ccc4c(c3)CN(C3CCC(=O)NC3=O)C4=O)ncn2C)cc1 (centres unmarked) [Example 246]
D (D = >10- 25% remaining) | < 25 | < 25 | F (F = >75-100% remaining) |  |  |  |  | Cc1ccc(Cl)c(-c2c(-c3ccc4c(c3)CN(C3CCC(=O)NC3=O)C4=O)ncn2C)c1 (centres unmarked) [Example 199]
D (D = >10- 25% remaining) | < 25 | ≥ 25 | F (F = >75-100% remaining) |  |  |  |  | Cn1cnc(-c2ccc3c(c2)CN(C2CCC(=O)NC2=O)C3=O)c1-c1ccncc1 (centres unmarked) [Example 317]
C (C = 0-10% remaining) | < 25 | < 25 | D (D = >10- 25% remaining) |  |  |  |  | COc1ccc(-c2c(-c3ccc4c(c3)CN(C3CCC(=O)NC3=O)C4=O)ncn2C)cc1O (centres unmarked) [Example 253]
